# Reference: PMC7129073 (Clinical Microbiology and Infection, 2015)
# Read-outs that look alike come from different tables or passages of the source.
# Experiments:
# [1] = system: Pseudomonas aeruginosa (PSA); assay: Vitek 2 susceptibility, urine isolates of children; assay type: cell-based; details: both departments
# nontyphoidal Salmonella = assay: Agar dilution, isolates from chickens 1998–2004; assay type: cell-based, Salmonella spp.
# [2] = system: viridans group streptococci (VGS); assay: MIC; assay type: cell-based
# S. pyogenes = assay: Sensitivity of CAP pathogens with/without antibiotic pretreatment; assay type: cell-based, Streptococcus pyogenes; details: Abs. 4
# Staph. coaq (−) = assay: as above; assay type: cell-based, coagulase-negative Staphylococcus
# Kl. pneumoniae = assay: as above; assay type: cell-based, Klebsiella pneumoniae
# [3] = system: Other non-fermenting bacteria; assay: as above; assay type: cell-based
# Nocardia spp. = assay: E-test on Mueller Hinton agar, 81 clinical isolates; assay type: cell-based; details: for MIC50 / MIC90: Nocardia; for MIC range: read after 48 and 72 h
# Enterococcus sp = assay: Sensitivity of CAP pathogens with/without antibiotic pretreatment; assay type: cell-based
# S. aureus = assay: as above; assay type: cell-based, Staphylococcus aureus
# H. influenzae = assay: as above; assay type: cell-based, Haemophilus influenzae
# S. pneumoniae [4] = assay: PROTEKT Italy, NCCLS microdilution; assay type: cell-based, Streptococcus pneumoniae
# S. pneumoniae [5] = assay: Broth microdilution; assay type: cell-based, Streptococcus pneumoniae; details: 275 isolates
# P. aeruginosa = assay: Sensitivity of CAP pathogens with/without antibiotic pretreatment; assay type: cell-based, Pseudomonas aeruginosa; details: Abs. 3
# Other Enterobacteriacae = assay: as above; assay type: cell-based, Enterobacteriaceae
# [6] = system: Total pathogens in community acquired pneumonia; assay: as above; assay type: cell-based
# Other Haemophilus sp. = assay: as above; assay type: cell-based
# S. -pneumoniae = assay: as above; assay type: cell-based, Streptococcus pneumoniae
# E. coli = assay: as above; assay type: cell-based, Escherichia coli
# S. pneumoniae [7] = assay: E-test MIC, children with URTI, Brazil; assay type: cell-based, Streptococcus pneumoniae
# [8] = system: pathogens in community acquired pneumonia of different severity; assay: Sensitivity of CAP pathogens by Fine severity group; assay type: cell-based
# C. parapsilosis = assay: Antifungal susceptibility; assay type: cell-based, Candida parapsilosis
# C. albicans = assay: Antifungal susceptibility; assay type: cell-based, Candida albicans
# MSSA = assay: Agar dilution MIC; assay type: cell-based, Staphylococcus aureus; details: for MIC50 / MIC90: Staphylococcus aureus, MSSA; for MIC range: n = 200
# Acinetobacter = assay: Disk diffusion; assay type: cell-based; details: 37 isolates selected as resistant to beta-lactams
# S. pneumoniae (SPN) = assay: NCCLS broth microdilution, fluoroquinolones 1999–2004; assay type: cell-based, Streptococcus pneumoniae; details: Streptococcus pneumoniae, read-out: MIC90 during the six years, 1999–2004
# MRSA = assay: Agar dilution MIC; assay type: cell-based, Staphylococcus aureus; details: for MIC50 / MIC90: Staphylococcus aureus, MRSA; for MIC range: n = 50
# [9] = system: Pseudomonas putida clinical isolates; assay: Agar dilution MIC; assay type: cell-based
# enterococci = assay: Disk diffusion and E-test, faecal isolates of cancer patients; assay type: cell-based, Enterococcus; details: 38 strains
# E. faecium = assay: E-test susceptibility; assay type: cell-based, Enterococcus faecium
# [10] = Linezolid in paediatric oncohaematological patients, retrospective; assay type: in vivo, human
# [11] = system: methicillin susceptible Staphylococcus aureus; assay: NCCLS agar dilution MIC; assay type: cell-based
# [12] = system: glycopeptide intermediate Staphylococcus species (GISS); assay: VITEK II, screening plate and E test, blood isolates; assay type: cell-based, coagulase-negative Staphylococci
# E. faecalis = assay: E-test susceptibility; assay type: cell-based, Enterococcus faecalis
# [13] = system: methicillin resistant Staphylococcus aureus; assay: NCCLS agar dilution MIC; assay type: cell-based; details: n = 53
# [14] = system: viridans group streptococci (VgS) and Streptococcus bovis; assay: Broth microdilution and disk diffusion; assay type: cell-based; details: nine species
# N.gonorrhoeae = assay: microbe, parasite or virus in culture; assay type: cell-based; details: Neisseria gonorrhoeae
# Salmonella enterica = assay: VITEK, NCCLS microdilution and disc diffusion of quinolones; assay type: cell-based
# Shigella spp. = assay: Disk diffusion, stool isolates Tehran; assay type: cell-based; details: 96 isolates
# S. pneumoniae [15] = assay type: cell-based, Streptococcus pneumoniae
# [16] = system: Streptococcus agalactiae strains P0162 and P0425; assay: Microdilution; assay type: cell-based
# [17] = Phase 3 trial, complicated intra-abdominal infections; assay type: in vivo, human
compound,measurement,setting,value
"NCC[C@H](O)C(=O)N[C@@H]1C[C@H](N)[C@@H](O[C@H]2O[C@H](CN)[C@@H](O)[C@H](O)[C@H]2O)[C@H](O)[C@H]1O[C@H]1O[C@H](CO)[C@@H](O)[C@H](N)[C@H]1O [AM, amikacin]",Susceptible isolates,[1],74-100%
same,resistance,"nontyphoidal Salmonella; Belgian collection (caecal samples; Belgium, France, Netherlands)",46%
same,resistance,nontyphoidal Salmonella; Germany (carcass meat),16%
same,MIC50,[2],0.12 µg/mL
same,MIC90,[2],1 µg/mL
CC1(C)S[C@@H]2[C@H](NC(=O)[C@H](N)c3ccc(O)cc3)C(=O)N2[C@H]1C(=O)O [amoxicillin],% of sensitive strains,S. pyogenes; after pretreatment,75.0%
same,% of sensitive strains,S. pyogenes; without pretreatment,100.0%
same,% of sensitive strains,"Staph. coaq (−); after pretreatment, Abs. 2",50.0%
same,% of sensitive strains,"Staph. coaq (−); without pretreatment, Abs. 4",50.0%
same,% of sensitive strains,"Kl. pneumoniae; after pretreatment, Abs. 5",0.0%
same,% of sensitive strains,"Kl. pneumoniae; without pretreatment, Abs. 4",0.0%
same,% of sensitive strains,"[3]; after pretreatment, Abs. 0",0.0%
same,% of sensitive strains,"[3]; without pretreatment, Abs. 1",0.0%
same,MIC50,Nocardia spp.,12 µg/mL
same,MIC90,Nocardia spp.,32 µg/mL
same,% of sensitive strains,"Enterococcus sp; after pretreatment, Abs. 0",0.0%
same,% of sensitive strains,"Enterococcus sp; without pretreatment, Abs. 1",100.0%
same,% of sensitive strains,"S. aureus; after pretreatment, Abs. 4",0.0%
same,% of sensitive strains,"S. aureus; without pretreatment, Abs. 11",9.1%
same,% of sensitive strains,"H. influenzae; after pretreatment, Abs. 10",80.0%
same,% of sensitive strains,"H. influenzae; without pretreatment, Abs. 26",88.5%
same,susceptible,S. pneumoniae [4]; year 1: 2002,93.8%
same,susceptible,S. pneumoniae [4]; year 2: 2003,96.6%
same,Susceptibility,S. pneumoniae [5],99.3%
same,% of sensitive strains,P. aeruginosa; after pretreatment,0.0%
same,% of sensitive strains,P. aeruginosa; without pretreatment,0.0%
same,% of sensitive strains,"Other Enterobacteriacae; after pretreatment, Abs. 5",20.0%
same,% of sensitive strains,"Other Enterobacteriacae; without pretreatment, Abs. 2",50.0%
same,% of sensitive strains,"[6]; after pretreatment, Abs. 48",54.2%
same,% of sensitive strains,"[6]; without pretreatment, Abs. 95",69.5%
same,% of sensitive strains,"Other Haemophilus sp.; after pretreatment, Abs. 11",90.9%
same,% of sensitive strains,"Other Haemophilus sp.; without pretreatment, Abs. 21",90.5%
same,% of sensitive strains,"S. -pneumoniae; after antibiotic pretreatment, Abs. 3",66.7%
same,% of sensitive strains,"S. -pneumoniae; without antibiotic pretreatment, Abs. 13",92.3%
same,% of sensitive strains,"E. coli; after pretreatment, Abs. 1",100.0%
same,% of sensitive strains,"E. coli; without pretreatment, Abs. 5",60.0%
same,resistant (R),S. pneumoniae [7]; 137 isolates,0.7%
same,MIC,"S. pneumoniae [7]; Streptococcus pneumoniae, read-out: MIC of the one resistant isolate",3 µg/mL
same,"sensitivity, total strains",[8]; higher severity group (Fine scores >70),"55,8%"
same,"sensitivity, total strains",[8]; lower severity group (Fine scores <70),64.8%
C[C@@H]1[C@H](O)[C@@H](C)/C=C/C=C/C=C/C=C/C=C/C=C/C=C/[C@H](O[C@@H]2O[C@H](C)[C@@H](O)[C@H](N)[C@@H]2O)C[C@@H]2O[C@](O)(C[C@@H](O)C[C@@H](O)[C@H](O)CC[C@@H](O)C[C@@H](O)CC(=O)O[C@H]1C)C[C@H](O)[C@H]2C(=O)O [amphotericin B],resistant,C. parapsilosis,10%
same,susceptibility of all tested strains,C. albicans,susceptible
Clc1ccc(COC(Cn2ccnc2)c2ccc(Cl)cc2Cl)cc1 (centres unmarked) [econazole],resistant and intermediate susceptibility,C. parapsilosis,63%
same,intermediate susceptibility,C. albicans,2%
Nc1nc(=O)[nH]cc1F [flucitozine],susceptibility of all tested strains,C. albicans,susceptible
COc1c(N2CCNC(C)C2)c(F)cc2c(=O)c(C(=O)O)cn(C3CC3)c12 (centres unmarked) [gatifloxacin],MIC50,MSSA,< 0.0625 µg/mL
same,MIC90,MSSA,< 0.125 µg/mL
same,MIC range,MSSA,0.0625 to 4 µg/mL
same,MIC50,[2],0.25 µg/mL
same,MIC90,[2],0.25 µg/mL
same,resistant isolates,Acinetobacter,83.8%
same,MIC90,S. pneumoniae (SPN),0.5 µg/mL
same,MIC50,MRSA,< 4 µg/mL
same,MIC90,MRSA,< 4 µg/mL
same,MIC range,MRSA,4 µg/mL
same,MIC,[9],> 128 µg/mL
CC(=O)NC[C@H]1CN(c2ccc(N3CCOCC3)c(F)c2)C(=O)O1 [linezolid],sensitivity of all isolated strains,enterococci,All the isolated strains were sensitive
same,Susceptibility,E. faecium; ICU,98%
same,Susceptibility,E. faecium; non-ICU,99%
same,MIC50,MSSA,< 2 µg/mL
same,MIC90,MSSA,< 2 µg/mL
same,MIC range,MSSA,2 µg/mL
same,MIC50,[2],1 µg/mL
same,MIC90,[2],1 µg/mL
same,susceptibility of all isolates,[2]; NCCLS,All isolates were susceptible
same,MIC50,Nocardia spp.,1 µg/mL
same,MIC90,Nocardia spp.,2 µg/mL
same,MIC range,Nocardia spp.,0.047 to 3 µg/mL
same,clinical response,"[10]; 10 mg/kg bid iv, combined therapy, 38/50 courses",76%
same,courses discontinued due to exacerbation of cytopenia,[10]; 1 course,2%
same,eradication of Gram(+) organisms in mixed fungal and bacterial infection,[10]; 4/50 courses,8%
same,complete resolution after ineffective vancomycin therapy,[10]; 8/16,50%
same,"eradication, documented Gram(+) infection",[10]; 13/13,100%
same,complete resolution of the symptoms,[10]; 34/50 courses,68%
same,MIC50,[11]; Staphylococcus aureus,2 µg/mL
same,MIC90,[11]; Staphylococcus aureus,2 µg/mL
same,MIC range,[11]; n = 41,0.5 to 2 µg/mL
same,sensitivity of all GISS strains,[12],all GISS strains demonstrated sensitivity
same,MIC50,MRSA,< 2 µg/mL
same,MIC90,MRSA,< 2 µg/mL
same,MIC range,MRSA,2 µg/mL
same,Susceptibility,"E. faecalis; ICU, SRGA breakpoints, tigecycline tentative ≤2 μg/ml",98%
same,Susceptibility,E. faecalis; non-ICU,99%
same,MIC range,[13],1 to 32 µg/mL
same,"% S, range between species",[14],99.1 – 100.0%
Clc1ccc(COC(Cn2ccnc2)c2ccc(Cl)cc2Cl)c(Cl)c1 (centres unmarked) [miconazole],resistant and intermediate susceptibility,C. parapsilosis,50%
same,susceptibility of all tested strains,C. albicans,susceptible
CN(C)c1ccc(O)c2c1C[C@H]1C[C@H]3[C@H](N(C)C)C(O)=C(C(N)=O)C(=O)[C@@]3(O)C(O)=C1C2=O [minocycline],resistant isolates,Acinetobacter,45.9%
same,MIC50,Nocardia spp.,1.5 µg/mL
same,MIC90,Nocardia spp.,3 µg/mL
same,MIC range,Nocardia spp.,0.016 to 4 µg/mL
same,MIC,[9],> 16 µg/mL
C[C@@H]1[C@H](O)[C@@H](C)/C=C/C=C/CC/C=C/C=C/C=C/C=C/C(O[C@H]2O[C@H](C)[C@@H](O)[C@H](N)[C@@H]2O)CC2O[C@](O)(CC(O)C(O)CCC(O)CC(O)CC(O)CC(=O)O[C@H]1C)CC(O)C2C(=O)O (some centres unmarked) [nystatin],resistant,C. parapsilosis,10%
same,intermediate susceptibility,C. albicans,2%
same,resistance,C. albicans,2%
CC1COc2c(N3CCN(C)CC3)c(F)cc3c(=O)c(C(=O)O)cn1c23 (centres unmarked) [ofloxacin],MIC,N.gonorrhoeae; strain 76mu6,8 µg/mL
same,MIC,N.gonorrhoeae; strain 76mu10,8 µg/mL
same,MIC,N.gonorrhoeae; strain 92mu6,4 µg/mL
same,MIC,N.gonorrhoeae; strain 92mu13,4 µg/mL
same,resistant isolates,Acinetobacter,43.2%
same,MIC,"Salmonella enterica; read-out: NCCLS MIC, 37 NAL-R strains",0.25 to 1 µg/mL
same,MIC,"Salmonella enterica; read-out: NCCLS MIC, NAL-S strains",≤ 0.06 µg/mL
same,resistance rate,[12]; 73 GISS strains,"84,9%"
same,sensitive,Shigella spp.,100%
same,resistant,S. pneumoniae [15],0%
C[C@H]1COc2c(C3(N)CC3)c(F)cc3c(=O)c(C(=O)O)cn1c23 [pazufloxacin],MIC,[9],> 128 µg/mL
C[C@@H]1CN(c2c(F)c(N)c3c(=O)c(C(=O)O)cn(C4CC4)c3c2F)C[C@H](C)N1 [sparfloxacin],MIC,"[16]; strain P0162 (ParC Ser79Phe, GyrA Glu85Ala)",4 µg/mL
same,MIC,"[16]; strain P0425 (ParC Ser79Phe, GyrA Glu85Lys)",> 32 µg/mL
same,MIC,[9],> 128 µg/mL
CC1(C)S[C@@H]2[C@H](NC(=O)[C@H](C(=O)O)c3ccsc3)C(=O)N2[C@H]1C(=O)O [ticarcillin],Susceptible isolates,[1],74-100%
same,resistant isolates,Acinetobacter,86.5%
imipenem/cilastatin [IMI/CIS],"clinical cure rate at TOC, ME group","[17]; TGC 100 mg then 50 mg q12h iv, IMI/CIS 500/500 mg q6h, 5–14 days",82.4%
same,nausea,[17]; adverse events,24.8%
same,vomiting,[17]; adverse events,19.4%
same,"clinical cure rate at TOC, m-mITT cohort",[17]; same regimens,78.2%
quinupristin/dalfopristin,MIC50,"[2]; 107 strains, 1990–2003",0.5 µg/mL
same,MIC90,"[2]; 107 strains, 1990–2003",2 µg/mL
same,sensitivity of all GISS strains,[12],all GISS strains demonstrated sensitivity
same,"% S, range between species",[14],99.0 – 100.0%
